Assay results from patent publication US12303497B2, “Anti-androgens for the treatment of metastatic castration-sensitive prostate cancer” (priority 2019, dated 2025).

Experiments:
[1] = biological target: organic anion transporter 1 (Homo sapiens, UniProt Q4U2R8)
BCRP = BCRP (Homo sapiens, UniProt Q9UNQ0); settings: not told
[2] = biological target: organic cation transporter 2 (OCT2) (Homo sapiens, UniProt O15244)
CYP3A4 = CYP3A4 (Homo sapiens, UniProt P08684)
CYP1A2 = CYP1A2 (Homo sapiens, UniProt P05177); assay: In vitro effect on CYP; settings: therapeutically relevant concentrations
CYP2B6 = CYP2B6 (Homo sapiens, UniProt P20813)
[3] = Single oral administration of radiolabeled apalutamide (AUC share, excretion); assay type: in vivo
[4] = human, in vivo
CYP2C9 = CYP2C9 (Homo sapiens, UniProt P11712)
Plasma protein binding = assay type: in vitro ADME
CYP2C8 = biological target: T1, CYP2C8 (Homo sapiens, UniProt P10632)
T1 sequence (P10632 1-490): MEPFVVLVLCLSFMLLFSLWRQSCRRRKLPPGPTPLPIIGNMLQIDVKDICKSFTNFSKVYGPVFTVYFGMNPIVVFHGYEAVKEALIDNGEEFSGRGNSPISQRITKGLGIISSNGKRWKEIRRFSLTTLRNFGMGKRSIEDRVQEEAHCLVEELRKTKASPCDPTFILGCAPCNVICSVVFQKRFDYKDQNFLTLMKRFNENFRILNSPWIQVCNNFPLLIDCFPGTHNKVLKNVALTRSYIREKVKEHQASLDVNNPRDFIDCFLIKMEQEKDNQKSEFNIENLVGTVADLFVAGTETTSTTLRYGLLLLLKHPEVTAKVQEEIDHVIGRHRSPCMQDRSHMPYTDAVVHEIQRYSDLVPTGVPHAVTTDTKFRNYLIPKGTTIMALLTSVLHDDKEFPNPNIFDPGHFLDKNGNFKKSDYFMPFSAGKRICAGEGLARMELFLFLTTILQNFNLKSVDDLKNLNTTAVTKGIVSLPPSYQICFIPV

[5] = test system: multidrug and toxin extrusions (MATEs); assay: In vitro transporter inhibition; assay type: in vitro ADME
OATP1B1 = OATP1B1 (Homo sapiens, UniProt Q9Y6L6)
OATP1B3 = OATP1B3 (Homo sapiens, UniProt Q9NPD5)
[6] = biological target: organic anion transporter 3 (OAT3) (Homo sapiens, UniProt Q8TCC7)
P-gp = P-gp (Homo sapiens, UniProt P08183); settings: not told
CYP2C19 = CYP2C19 (Homo sapiens, UniProt P33261)
CYP2D6 = CYP2D6 (Homo sapiens, UniProt P10635)
AR = AR (Homo sapiens, UniProt P10275); settings: cited from earlier work
T877A AR mutant = T877A AR mutant (Homo sapiens, UniProt P10275, T878A); settings: literature; cited from earlier work
[7] = up to 70 days after single oral radiolabeled dose

Sequence of AR (P10275 whole entry): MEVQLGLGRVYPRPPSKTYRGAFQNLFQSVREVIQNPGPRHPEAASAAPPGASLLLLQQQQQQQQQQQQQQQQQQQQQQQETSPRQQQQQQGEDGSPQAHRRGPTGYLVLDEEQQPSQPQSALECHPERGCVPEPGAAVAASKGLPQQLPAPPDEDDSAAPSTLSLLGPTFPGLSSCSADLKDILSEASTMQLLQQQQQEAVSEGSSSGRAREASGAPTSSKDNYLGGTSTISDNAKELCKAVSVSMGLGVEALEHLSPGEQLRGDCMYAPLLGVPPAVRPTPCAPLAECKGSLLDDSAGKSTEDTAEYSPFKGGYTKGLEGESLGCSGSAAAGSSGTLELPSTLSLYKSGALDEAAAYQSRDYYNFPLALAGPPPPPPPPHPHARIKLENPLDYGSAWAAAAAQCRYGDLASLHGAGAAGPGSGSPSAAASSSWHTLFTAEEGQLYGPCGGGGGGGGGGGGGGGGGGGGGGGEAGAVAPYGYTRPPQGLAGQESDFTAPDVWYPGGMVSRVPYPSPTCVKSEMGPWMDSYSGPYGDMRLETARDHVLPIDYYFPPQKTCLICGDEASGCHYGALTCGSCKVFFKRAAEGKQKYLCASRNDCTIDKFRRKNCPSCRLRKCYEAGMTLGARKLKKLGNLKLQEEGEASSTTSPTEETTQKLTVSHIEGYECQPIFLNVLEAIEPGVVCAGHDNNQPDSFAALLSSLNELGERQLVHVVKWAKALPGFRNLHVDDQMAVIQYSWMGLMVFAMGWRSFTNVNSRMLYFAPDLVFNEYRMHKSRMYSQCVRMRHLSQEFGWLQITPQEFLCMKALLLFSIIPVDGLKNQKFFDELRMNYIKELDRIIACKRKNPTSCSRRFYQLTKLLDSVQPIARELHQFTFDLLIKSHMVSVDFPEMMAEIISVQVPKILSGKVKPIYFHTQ
Sequence of T877A AR mutant (P10275 whole entry T878A): as the sequence (P10275 whole entry) above, with T878A counted along it
Sequence of BCRP (Q9UNQ0 whole entry): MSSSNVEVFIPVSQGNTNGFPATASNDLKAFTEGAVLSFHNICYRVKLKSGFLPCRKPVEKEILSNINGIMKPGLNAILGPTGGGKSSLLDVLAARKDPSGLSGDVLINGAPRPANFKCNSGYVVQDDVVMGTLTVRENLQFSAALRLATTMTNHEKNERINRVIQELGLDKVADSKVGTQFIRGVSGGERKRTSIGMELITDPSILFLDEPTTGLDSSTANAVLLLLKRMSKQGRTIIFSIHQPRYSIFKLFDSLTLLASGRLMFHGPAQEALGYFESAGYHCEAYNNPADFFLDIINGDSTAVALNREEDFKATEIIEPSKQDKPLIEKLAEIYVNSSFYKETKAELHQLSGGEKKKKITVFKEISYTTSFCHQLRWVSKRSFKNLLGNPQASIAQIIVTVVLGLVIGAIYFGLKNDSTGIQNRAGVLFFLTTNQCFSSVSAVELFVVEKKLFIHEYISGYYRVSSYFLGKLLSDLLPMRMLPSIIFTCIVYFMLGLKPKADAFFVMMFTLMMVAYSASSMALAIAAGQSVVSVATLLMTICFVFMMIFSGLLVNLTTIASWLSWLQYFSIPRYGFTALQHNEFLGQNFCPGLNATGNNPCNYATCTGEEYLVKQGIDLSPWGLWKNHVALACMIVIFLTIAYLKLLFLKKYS
Sequence of CYP2B6 (P20813 whole entry): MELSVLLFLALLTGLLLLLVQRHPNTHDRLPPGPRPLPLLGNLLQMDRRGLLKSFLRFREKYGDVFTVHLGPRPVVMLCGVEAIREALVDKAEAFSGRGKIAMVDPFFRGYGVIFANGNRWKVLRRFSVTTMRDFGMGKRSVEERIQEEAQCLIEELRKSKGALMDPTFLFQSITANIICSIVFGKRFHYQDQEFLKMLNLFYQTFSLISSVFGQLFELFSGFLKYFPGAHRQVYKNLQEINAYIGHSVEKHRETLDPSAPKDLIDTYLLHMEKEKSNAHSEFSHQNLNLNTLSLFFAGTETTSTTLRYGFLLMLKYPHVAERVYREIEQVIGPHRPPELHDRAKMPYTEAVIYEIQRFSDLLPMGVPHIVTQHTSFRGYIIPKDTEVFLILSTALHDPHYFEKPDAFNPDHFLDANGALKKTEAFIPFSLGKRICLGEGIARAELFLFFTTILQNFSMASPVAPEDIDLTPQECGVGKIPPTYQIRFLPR
Sequence of CYP2C9 (P11712 whole entry): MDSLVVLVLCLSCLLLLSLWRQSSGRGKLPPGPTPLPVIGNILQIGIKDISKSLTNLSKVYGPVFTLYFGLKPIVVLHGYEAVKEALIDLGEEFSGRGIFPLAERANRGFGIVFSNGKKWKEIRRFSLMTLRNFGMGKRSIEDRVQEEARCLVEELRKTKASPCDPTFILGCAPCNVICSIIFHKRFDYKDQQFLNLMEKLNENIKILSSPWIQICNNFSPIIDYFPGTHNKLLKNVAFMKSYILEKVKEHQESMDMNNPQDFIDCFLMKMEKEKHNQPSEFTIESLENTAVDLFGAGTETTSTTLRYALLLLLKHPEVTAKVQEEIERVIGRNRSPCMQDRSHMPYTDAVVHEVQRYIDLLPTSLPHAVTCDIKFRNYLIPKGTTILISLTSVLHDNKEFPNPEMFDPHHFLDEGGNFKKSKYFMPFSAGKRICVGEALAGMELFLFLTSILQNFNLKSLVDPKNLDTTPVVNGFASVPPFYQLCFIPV
Sequence of CYP1A2 (P05177 whole entry): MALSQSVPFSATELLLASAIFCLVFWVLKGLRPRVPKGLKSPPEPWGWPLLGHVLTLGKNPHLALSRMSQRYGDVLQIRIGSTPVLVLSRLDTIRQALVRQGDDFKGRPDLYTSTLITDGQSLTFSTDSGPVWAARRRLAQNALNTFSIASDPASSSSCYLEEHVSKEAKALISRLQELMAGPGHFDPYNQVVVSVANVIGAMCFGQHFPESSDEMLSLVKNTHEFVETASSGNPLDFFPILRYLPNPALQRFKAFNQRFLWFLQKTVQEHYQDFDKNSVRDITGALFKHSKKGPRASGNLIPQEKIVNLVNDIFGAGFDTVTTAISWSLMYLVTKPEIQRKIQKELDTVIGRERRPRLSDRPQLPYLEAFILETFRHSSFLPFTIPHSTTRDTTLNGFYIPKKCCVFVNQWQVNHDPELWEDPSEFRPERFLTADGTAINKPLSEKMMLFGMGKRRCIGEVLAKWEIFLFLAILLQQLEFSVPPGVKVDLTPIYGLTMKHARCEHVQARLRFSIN
Sequence of organic anion transporter 3 (OAT3) (Q8TCC7 whole entry): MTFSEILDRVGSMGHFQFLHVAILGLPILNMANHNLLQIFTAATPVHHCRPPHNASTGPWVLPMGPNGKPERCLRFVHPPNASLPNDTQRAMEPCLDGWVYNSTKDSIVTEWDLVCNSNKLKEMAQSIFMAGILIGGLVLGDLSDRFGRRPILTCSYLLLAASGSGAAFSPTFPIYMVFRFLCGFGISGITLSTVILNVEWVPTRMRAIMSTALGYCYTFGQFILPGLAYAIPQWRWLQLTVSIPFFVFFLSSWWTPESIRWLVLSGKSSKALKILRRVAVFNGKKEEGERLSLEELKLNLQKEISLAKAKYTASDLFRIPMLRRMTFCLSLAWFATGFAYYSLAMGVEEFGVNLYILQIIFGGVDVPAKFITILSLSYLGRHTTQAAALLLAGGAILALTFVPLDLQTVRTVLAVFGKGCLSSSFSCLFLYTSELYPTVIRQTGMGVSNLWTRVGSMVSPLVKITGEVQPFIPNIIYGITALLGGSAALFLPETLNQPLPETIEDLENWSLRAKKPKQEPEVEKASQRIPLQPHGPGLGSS
Sequence of CYP2C19 (P33261 whole entry): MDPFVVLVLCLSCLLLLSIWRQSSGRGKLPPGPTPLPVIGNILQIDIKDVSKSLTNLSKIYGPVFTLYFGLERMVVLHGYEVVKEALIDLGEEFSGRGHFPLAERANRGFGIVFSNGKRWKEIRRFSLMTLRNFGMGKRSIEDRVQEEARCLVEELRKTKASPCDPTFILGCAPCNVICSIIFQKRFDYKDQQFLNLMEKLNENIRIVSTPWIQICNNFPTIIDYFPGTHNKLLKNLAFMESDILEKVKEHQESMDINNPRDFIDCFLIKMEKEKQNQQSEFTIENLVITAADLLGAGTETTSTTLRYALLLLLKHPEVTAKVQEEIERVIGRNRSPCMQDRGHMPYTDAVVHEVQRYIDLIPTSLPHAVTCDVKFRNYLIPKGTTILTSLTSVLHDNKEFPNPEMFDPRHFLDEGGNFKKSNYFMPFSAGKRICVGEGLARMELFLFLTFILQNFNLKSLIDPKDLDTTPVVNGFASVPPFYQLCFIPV
Sequence of CYP2D6 (P10635 whole entry): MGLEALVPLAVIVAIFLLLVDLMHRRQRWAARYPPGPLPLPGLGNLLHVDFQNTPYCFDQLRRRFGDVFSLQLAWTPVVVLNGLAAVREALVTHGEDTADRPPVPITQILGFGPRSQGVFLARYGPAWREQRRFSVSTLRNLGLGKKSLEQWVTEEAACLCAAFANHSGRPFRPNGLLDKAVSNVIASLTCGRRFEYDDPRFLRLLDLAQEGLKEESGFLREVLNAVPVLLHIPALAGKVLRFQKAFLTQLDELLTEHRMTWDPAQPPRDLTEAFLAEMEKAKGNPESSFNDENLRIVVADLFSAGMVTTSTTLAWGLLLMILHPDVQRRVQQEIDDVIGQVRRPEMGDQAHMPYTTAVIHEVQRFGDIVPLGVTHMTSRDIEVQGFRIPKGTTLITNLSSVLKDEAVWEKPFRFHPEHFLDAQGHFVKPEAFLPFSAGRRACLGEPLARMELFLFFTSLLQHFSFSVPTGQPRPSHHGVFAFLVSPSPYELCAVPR

**Q.** With N-desmethyl apalutamide as the molecule, how does the “Inhibition of organic anion transporter 1” value [1] read?
**A.** do not inhibit

**Q.** What about the “Substrate for BCRP” value (BCRP) of the same molecule?
**A.** not

**Q.** What about the “Inhibition of OCT2” value [2] of the same molecule?
**A.** inhibit

**Q.** What about the CYP3A4 inhibition (CYP3A4) of the same molecule?
**A.** weak inhibitors

**Q.** And the “Effect on CYP1A2” value (CYP1A2)?
**A.** do not affect

**Q.** And the CYP2B6 inhibition (CYP2B6)?
**A.** moderate inhibitors

**Q.** What about the “Share of the total AUC” value ([3]; single oral radiolabeled apalutamide 240 mg) of the same molecule?
**A.** 44%

**Q.** What about the “Dose recovered in feces as this compound” value [3, 7] of the same molecule?
**A.** 2%

**Q.** And the “Dose recovered in urine as this compound” value [3, 7]?
**A.** 2.7%

**Q.** And the “AUC at steady-state, mean” value [4]?
**A.** 124 µg·h/mL

**Q.** What about the “Cmax at steady-state, mean” value [4] of the same molecule?
**A.** 5900 ng/mL

**Q.** And the “Pharmacokinetics in specific populations” value [4]?
**A.** No clinically significant differences

**Q.** What about the CYP2C9 inhibition (CYP2C9) of the same molecule?
**A.** weak inhibitors

**Q.** What about the “Bound to plasma proteins” value (Plasma protein binding) of the same molecule?
**A.** 95%

**Q.** And the CYP2C8 inhibition (CYP2C8)?
**A.** moderate inhibitors

**Q.** What about the “Inhibition of MATEs” value [5] of the same molecule?
**A.** inhibit

**Q.** What about the “Substrate for OATP1B1” value (OATP1B1) of the same molecule?
**A.** not

**Q.** And the “Substrate for OATP1B3” value (OATP1B3)?
**A.** not

**Q.** What about the “Inhibition of OAT3” value [6] of the same molecule?
**A.** inhibit

**Q.** What about the “Substrate for P-gp” value (P-gp) of the same molecule?
**A.** substrates

**Q.** And the CYP2C19 inhibition (CYP2C19)?
**A.** weak inhibitors

**Q.** What about the “Effect on CYP2D6” value (CYP2D6) of the same molecule?
**A.** do not affect

**Q.** With `CC(O)c1cc(C(=O)N[C@@H](C)Cn2ccc(-c3ccc(C#N)c(Cl)c3)n2)n[nH]1` (mixture of isomers) [Darolutamide, N-{(2S)-1-[3-(3-chloro-4-cyanophenyl)-1H-pyrazol-1-yl]propan-2-yl}-5-(1-hydroxyethyl)-1H-pyrazole-3-carboxamide] as the molecule, how does the “Affinity of binding to AR” value (AR) read?
**A.** high affinity

**Q.** With `CC(C)(O)C(=O)Nc1ccc([N+](=O)[O-])c(C(F)(F)F)c1` [hydroxyflutamide] as the molecule, how does the “Activity in T877A AR mutant” value (T877A AR mutant) read?
**A.** AR agonists
